Measurements from patent US9120804B2, “8-substituted 2-amino-[1,2,4] triazolo [1, 5-A] pyrazines as Syk tryrosine kinase inhibitors and GCN2 serin kinase inhibitors” (Merck Patent GmbH, priority 2012, dated 2015).

Molecular target: T1, SYK (Homo sapiens, UniProt P43405)
T1 construct: 2.5 nM SYK, 400 nM Biotin-Aha-Aha-KEDPDYEWPSAKK
Assay: SYK flash plate assay (enzyme assay)
Type: biochemical
Summary of the method: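 Radiometric Flashplate format: biotinylated peptide substrate (400 nM) and 33P-labelled ATP (10 μM) react with 2.5 nM enzyme for 1 hour at 30 °C in Hepes buffer, pH 7.5. After EDTA quench and washing, counts are taken; staurosporine defines non-specific signal, and IC50 values are derived.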

| SMILES | IC50 [nM] |
| --- | --- |
| CC1(C)C(=O)Nc2cc(Nc3nc4c(-c5cc6n(n5)CCOC6)nccn4n3)ccc21 [E132, 6-[8-(6,7-Dihydro-4H-pyrazolo[5,1-c][1,4]oxazin-2-yl)-[1,2,4]triazolo[1,5-a]pyrazin-2-ylamino]-3,3-dimethyl-1,3-dihydro-indol-2-one] | 300 to 3000 |
| COCC1CCCN1c1nccn2nc(Nc3ccc4c(c3)NC(=O)C4(C)C)nc12 (stereo not drawn) [E83, 6-[8-(2-methoxymethyl-pyrrolidin-1-yl)-[1,2,4]triazolo[1,5-a]pyrazin-2-ylamino]-3,3-dimethyl-1,3-dihydro-indol-2-one] | 300 to 3000 |
| COc1cccc(Nc2nc3c(-c4ccccc4-c4ccccc4)nccn3n2)c1 [C7, (8-Biphenyl-2-yl-[1,2,4]triazolo[1,5-a]pyrazin-2-yl)-(3-methoxy-phenyl)-amine] | 300 to 3000 |
| CC1(C)C(=O)Nc2cc(Nc3nc4c(N5CCCC6(C5)NC(=O)NC6=O)nccn4n3)ccc21 (stereo not drawn) [C110, 7-[2-(3,3-dimethyl-2-oxo-2,3-dihydro-1H-indol-6-ylamino)-[1,2,4]triazolo[1,5-a]pyrazin-8-yl]-1,3,7-triaza-spiro[4.5]decane-2,4-dione] | 300 to 3000 |
| CC1(C)C(=O)Nc2cc(Nc3nc4c(N5C[C@H](O)C[C@@H]5c5ccccc5)nccn4n3)ccc21 [E6, 6-[8-(4(2R,4R)-4-hydroxy-2-phenyl-pyrrolidin-1-yl)-[1,2,4]triazolo[1,5-a]pyrazin-2-ylamino]-3,3-dimethyl-1,3-dihydro-indol-2-one] | 100 to 300 |
| CC1(C)C(=O)Nc2cc(Nc3nc4c(NC5CN6CCC5CC6)nccn4n3)ccc21 (stereo not drawn) [E135, 6-[8-(1-aza-bicyclo[2.2.2]oct-3-ylamino)-[1,2,4]triazolo[1,5-a]pyrazin-2-ylamino]-3,3-dimethyl-1,3-dihydro-indol-2-one] | < 100 |
| CC(=O)N(C)C1CCN(c2nccn3nc(Nc4ccc5c(c4)NC(=O)C5(C)C)nc23)C1 (stereo not drawn) [E11, N-{1-[2-(3,3-dimethyl-2-oxo-2,3-dihydro-1H-indol-6-ylamino)-[1,2,4]triazolo[1,5-a]pyrazin-8-yl]-pyrrolidin-3-yl}-N-methyl-acetamide] | 300 to 3000 |
| Cn1cc(-c2nccn3nc(Nc4cc5c(cc4F)C(C)(C)CC(=O)N5)nc23)cn1 [E121, 6-fluoro-4,4-dimethyl-7-[8-(1-methyl-1H-pyrazol-4-yl)-[1,2,4]triazolo[1,5-a]pyrazin-2-ylamino]-3,4-dihydro-1H-quinolin-2-one] | 300 to 3000 |
| CC1(C)C(=O)Nc2cc(Nc3nc4c(N5C[C@@H](CO)C[C@@H]5c5ccccc5)nccn4n3)ccc21 (single isomer, unassigned) [E97, 6-[8-((trans1)-4-hydroxymethyl-2-phenyl-pyrrolidin-1-yl)-[1,2,4]triazolo[1,5-a]pyrazin-2-ylamino]-3,3-dimethyl-1,3-dihydro-indol-2-one] | 300 to 3000 |
| CC1(C)C(=O)Nc2cc(Nc3nc4c(O[C@@H]5CN[C@@H](c6ccccc6C(F)(F)F)C5)nccn4n3)ccc21 [E82, 3,3-dimethyl-6-{8-[(3S,5R)-5-(2-trifluoroinethyl-phenyl)-pyrrolidin-3-yloxy]-[1,2,4]triazolo[1,5-a]pyrazin-2-ylamino}-1,3-dihydro-indol-2-one] | 3000 to 50000 |
| CCOC(=O)c1cnn2c1CN(c1nccn3nc(Nc4ccc5c(c4)NC(=O)C5(C)C)nc13)CC2 [C106, 5-[2-(3,3-dimethyl-2-oxo-2,3-dihydro-1H-indol-6-ylamino)-[1,2,4]triazolo[1,5-a]pyrazin-8-yl]-4,5,6,7-tetrahydro-pyrazolo[1,5-a]pyrazine-3-carboxylic acid ethyl ester] | 300 to 3000 |
| CC1=NOCC2(CCN(c3nccn4nc(Nc5ccc6c(c5)NC(=O)C6(C)C)nc34)CC2)C1 [E58, 3,3-dimethyl-6-[8-(4-methyl-2-oxa-3,9-diaza-spiro[5.5]undec-3-en-9-yl)-[1,2,4]triazolo[1,5-a]pyrazin-2-ylamino]-1,3-dihydro-indol-2-one] | 100 to 300 |
| CC1(C)C(=O)Nc2cc(Nc3nc4c(-c5cnc6ccccc6c5)nccn4n3)ccc21 [E115, 3,3-Dimethyl-6-(8-quinolin-3-yl-[1,2,4]triazolo[1,5-a]pyrazin-2-ylamino)-1,3-dihydro-indol-2-one] | < 100 |
| CC(C)(OC(O)C(F)(F)F)c1ccc(Nc2nc3c(N4CCCCCC4)nccn3n2)cc1N (stereo not drawn) [E127, 1-{1-[2-amino-4-(8-azepan-1-yl-[1,2,4]triazolo[1,5-a]pyrazin-2-ylamino)-phenyl]-1-methyl-ethoxy}-2,2,2-trifluoro-ethanol] | 300 to 3000 |
| CC1CCCN1c1nccn2nc(Nc3ccc4c(c3)NC(=O)C4(C)C)nc12 (stereo not drawn) [E42, 3,3-dimethyl-6-[8-(2-methyl-pyrrolidin-1-yl)-[1,2,4]triazolo[1,5-a]pyrazin-2-ylamino]-1,3-dihydro-indol-2-one] | < 100 |
| CC1CCC(C)N1c1nccn2nc(Nc3ccc4c(c3)NC(=O)C4(C)C)nc12 (stereo not drawn) [E43, 6-[8-(2,5-dimethyl-pyrrolidin-1-yl)-[1,2,4]triazolo[1,5-a]pyrazin-2-ylamino]-3,3-dimethyl-1,3-dihydro-indol-2-one] | < 100 |

The remaining lines, values ahead:

| IC50 [nM] | SMILES |
| --- | --- |
| < 100 | CC1(C)C(=O)Nc2cc(Nc3nc4c(N5CCCC(C(N)=O)C5)nccn4n3)ccc21 (stereo not drawn) [E113, 1-[2-(3,3-dimethyl-2-oxo-2,3-dihydro-1H-indol-6-ylamino)-[1,2,4]triazolo[1,5-a]pyrazin-8-yl]-piperidine-3-carboxylic acid amide] |
| < 100 | CC1(C)C(=O)Nc2cc(Nc3nc4c(-c5cnn(C(C)(C)C)c5)nccn4n3)ccc21 [E140, 6-[8-(1-tert-butyl-1H-pyrazol-4-yl)-[1,2,4]triazolo[1,5-a]pyrazin-2-ylamino]-3,3-dimethyl-1,3-dihydro-indol-2-one] |
| < 100 | CC1(C)C(=O)Nc2cc(Nc3nc4c(N5CCNC(=O)CC5)nccn4n3)ccc21 [E74, 3,3-dimethyl-6-[8-(5-oxo-[1,4]diazepan-1-yl)-[1,2,4]triazolo[1,5-a]pyrazin-2-ylamino]-1,3-dihydro-indol-2-one] |
| < 100 | CC1(C)C(=O)Nc2cc(Nc3nc4c(N5CCC(C(N)=O)CC5)nccn4n3)ccc21 [E40, 1-[2-(3,3-dimethyl-2-oxo-2,3-dihydro-1H-indol-6-ylamino)-[1,2,4]triazolo[1,5-a]pyrazin-8-yl]-piperidine-4-carboxylic acid amide] |
| < 100 | CC1(C)OC(C(F)(F)F)Nc2cc(Nc3nc4c(N5CCCCCC5)nccn4n3)ccc21 (stereo not drawn) [E126, (8-azepan-1-yl-[1,2,4]triazolo[1,5-a]pyrazin-2-yl)-(4,4-dimethyl-2-trifluoromethyl-1,4-dihydro-2H-benzo[d][1,3]oxazin-7-yl)-amine] |
| < 100 | CC1(C)CC(=O)Nc2cc(Nc3nc4c(N5CCC6(CC(=O)NC6=O)C5)nccn4n3)ccc21 (stereo not drawn) [E7, 7-[2-(4,4-dimethyl-2-oxo-1,2,3,4-tetrahydro-quinolin-7-ylamino)-[1,2,4]triazolo[1,5-a]pyrazin-8-yl]-2,7-diaza-spiro[4.4]nonane-1,3-dione] |
| < 100 | CC(C)(O)c1ccc(Nc2nc3c(N4CCCCCC4)nccn3n2)cc1N [E125, 2-[2-amino-4-(8-azepan-1-yl-[1,2,4]triazolo[1,5-a]pyrazin-2-ylamino)-phenyl]-propan-2-ol] |
| < 100 | CC1(C)C(=O)Nc2cc(Nc3nc4c(N5CCCC5)nccn4n3)ccc21 [E41, 3,3-dimethyl-6-(8-pyrrolidin-1-yl-[1,2,4]triazolo[1,5-a]pyrazin-2-ylamino)-1,3-dihydro-indol-2-one] |
